Assay results reported in patent US6825217B2, “Carbinols for the treatment of neuropathic dysfunction” (Endo Pharmaceuticals, Inc., priority 2001, dated 2004).
Like-named read-outs stand apart in the source and are kept apart here.

Legend:
[1] = CCI rats, cited from earlier work
[2] = sometimes fatally; U.S. Food and Drug Administration; cited from earlier work
[3] = Mouse antiphenylquinone writhing (PQW) test; assay type: in vivo; settings: Mus musculus
Method: (§1) The anti-phenylquinone writhing (PQW) test modified from the methods of Siegmund et al. (Proc. Soc. Exp. Biol. Med. 95: 729-731, 1957) and Blumberg et al. (Proc. Exp. Biol. Med. 118: 763-767, 1965) was used to assess the relief from the simulated symptoms of neuropathic pain in mice. Male CF1 mice (Charles River Breeding Laboratories, Wilmington, Mass.), fasted for 16-22 hours and weighing 18-23 g, were injected with randomized and coded doses of test compounds, then challenged with 1.25 mg/kg i.p. phenyl-p-benzoquinone (phenylquinone) 5 minutes prior to the specified observation time. The phenylquinone solution (0.1 mg/ml in 5% aqueous ethanol) was prepared daily and stored in foil-wrapped amber bottles to limit degradation. Mice were observed 10 minutes for the presence or absence of the characteristic abdominal constriction and stretching response beginning 30 minutes after injection of the test compound. Activity was calculated as the percentage of mice failing to respond to the phenylquinone challenge dose. […] Median effective doses (ED50's) and 95% confidence limits were determined numerically by the methods of Thompson (Bacteriological Rev. 11: 115-145, 1947), and Litchfield and Wilcoxon (J. Pharmacol. Exp. Ther. 96: 99-113, 1949).

Rat Hot Plate = assay type: in vivo
Mouse Tail-Flick = assay type: in vivo; settings: Mus musculus; read-out: Mouse Tail-Flick ED50 (unit inferred)
[4] = Chung model (tactile allodynia); assay type: in vivo, rat; settings: rat; two hours post injection; doses 200 mg/kg and 100 mg/kg
Method: This model for neuropathic pain was performed on rats using the surgical procedure described by Kim and Chung (1992) to induce an allodynic state. Briefly, the left L-5 and L-6 spinal nerves were isolated adjacent to the vertebral column and ligated with 6-0 silk suture distal to the dorsal root ganglion under isoflurane anesthesia. This model allows for spinal cord structural reorganization and growth of low threshold mechnoreceptor fibers from the spinal cord with synaptic connections and rewiring of the dorsal horn. This leads to spontaneous firing of invading sympathetic nerves and upregulation of receptors and voltage-dependent channels; i.e. mimics the development of allodynia (nociceptive response to a previously neutral stimulus). The rats were allowed a minimum of 7-days postoperative recovery period before testing.
To assess tactile thresholds in the Chung model, rats were placed in a clear plastic, wire mesh-bottomed cage, divided into individual compartments. Animals were allowed to acclimate and then baseline thresholds were assessed prior to drug treatment. To assess the 50% mechanical threshold for paw withdrawal, von Frey hairs were applied to the plantar mid-hindpaw, avoiding the tori (footpads). The eight von Frey hairs used are designated by [log (10*force required to bend hair, mg)] and range from 0.4-15.1 grams (#'s 3.61-5.18). Each hair was pressed perpendicularly against the paw with sufficient force to cause slight bending, and held for approximately 6-8 seconds. A positive response was noted if the paw was sharply withdrawn. Flinching immediately upon removal of the hair was also considered a positive response. Absence of a response (“−”) was cause to present the next consecutive stronger stimulus; a positive response (“+”) was cause to present the next weaker stimulus. Stimuli were presented successively until either six data points were collected, or the maximum or minimum stimulus was reached. If a minimum stimulus was reached and positive responses still occurred, the threshold was assigned an arbitrary minimum value of 0.25 grams; if a maximum stimulus was presented and no response occurred, a maximum threshold value of 15 grams was assigned. If a change in response occurs, either “−” to “+” or “+” to “−”, causing a change in the direction of stimulus presentation from descending to ascending or vice-versa, four additional data points were collected subsequent to the change.

Rat Tail-Flick = assay type: in vivo
Rat PQW = assay type: in vivo; settings: Rattus norvegicus
Method: as §1

Formalin model = assay type: in vivo; settings: rat, versus saline control
Text: Formalin induces inflammatory stimulation of peripheral nerves that results in sensitization of CNS nociceptive transmission pathways. There are two phases of formalin-induced nociception: phase I—an acute nociceptive component; and phase II—a chronic nociceptive component characterized by hyperalgesia.
On the morning of formalin testing, a small metal band (0.5 g) was loosely placed around the right hind paw. The rat was placed in a cylindrical Plexiglas chamber for adaptation for a minimum of 30 minutes. Compound A, venlafaxine or a saline control was administered into the dorsal surface of the right hindpaw of the rat. The animal was then placed into the chamber of the automated formalin apparatus where movement of the formalin-injected paw was monitored and the number of paw flinches tallied by minute over the next sixty minutes. Upon completion of the test the animal was removed and euthanized.

GABA receptors = settings: cited from earlier work
[5] = system: subunit of a voltage-gated calcium channel; settings: cited from earlier work
[6] = intraperitoneal, high doses of up to 600 mg/kg
[7] = intraperitoneal 10 to 75 mg/kg, at two and four hours

CCN1CCC(c2cccc(Cl)c2)(C(C)O)CC1 (stereo not shown)
melting point: 89 to 94 °C

CN1CCC(c2cccc(Cl)c2)(C(C)(C)O)C1 (stereo not shown)
melting point: 98 to 99 °C

CC(O)C1(c2cccc(Cl)c2)CCCN(C)CC1 (stereo not shown)
melting point: 123 to 124 °C

NC(=O)OCC(COC(N)=O)c1ccccc1 [Felbamate, felbamate]
heat hyperalgesia [1, 6]: completely abolished | hindpaw guarding [1, 6]: completely abolished | mechanical allodynia [1, 6]: completely abolished | mechanical hyperalgesia [1, 6]: completely abolished | responses in the control hindpaw ([1]; intraperitoneal): unaffected | toxicity in humans [2]: liver failure and aplastic anemia

COc1cccc(C2(O)CCCCC2CN(C)C)c1 (stereo not shown) [TRAMADOL, Tramadol, reference compound]
ED50 [3]: 7.8 mg/kg | ED50 (Rat Hot Plate; Rattus norvegicus): 40 mg/kg | ED50 (Mouse Tail-Flick): 31.2 mg/kg

COc1ccc(C(CN(C)C)C2(O)CCCCC2)cc1 (stereo not shown) [Venlafaxine, reference compound]
effects on tactile allodynia [4]: statistically significant effects | Rat Tail-Flick (Rat Tail-Flick): Inactive | Rat Hot Plate ED50 (Rat Hot Plate; rat): Inactive | ED50 (Rat PQW): 39.2 mg/kg | formalin test, paw flinches, phase I (Formalin model; all administered doses (200/100/50 mg per kg)): statistically significant effects | formalin test, paw flinches, phase II (Formalin model; all administered doses): statistically significant effects only during phases I and IIA | formalin test, paw flinches, phase IIA (Formalin model; all administered doses): statistically significant effects | formalin test, paw flinches, Phase IIB (Formalin model): No statistical significance

NCC1(CC(=O)O)CCCCC1 [gabapentin]
effect on GABA receptors (GABA receptors): no direct effect | responses on the control side [1]: no significant change | heat hyperalgesia [1, 7]: suppressed | mechanical allodynia [1, 7]: suppressed | mechanical hyperalgesia ([1]; intraperitoneal 10 to 75 mg/kg): lacked effect | responses at 24 hours ([1]; intraperitoneal, 24 hours): abnormal responses had returned | pattern of effects after intrathecal injection ([1]; intrathecal to the lumbar spinal cord, 37.5 to 150 mcg/kg): the pattern was similar | binding to a subunit of a voltage-gated calcium channel [5]: binds with high affinity
